Measured values taken from US9951065B2 (Gilead Sciences, Inc., priority 2015, dated 2018).
pEC50: −log10 of the molar value.

Target: T1, IDO1 (Homo sapiens, UniProt P14902)
T1 construct: HeLa cells were treated with a test compound in the presence of IFNγ, which induces IDO1 expression; host or cells: H1-HeLa cells, IDO1 induced with IFNγ
Assay: Cell-based (HeLa) assay for measurement of IDO1 inhibition (kynurenine levels in supernatant after IFNγ induction)
Conditions: HeLa cells, geometric mean of a minimum of four determinations
In short: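 IDO1 activity is read as kynurenine released into the medium, detected with Ehrlich's reagent (p-dimethylaminobenzaldehyde) at 480 nm after TCA treatment. HeLa cells were exposed 48 h to compounds in 0.5% DMSO alongside IFNγ induction. Values normalized to no-IFNγ and IFNγ controls; four-parameter EC50 given as geometric mean of ≥4 determinations.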

[1] = IFNγ-induced IDO1, kynurenine in supernatant after 48 hour incubation
[2] = IFNγ-induced IDO1, kynurenine in supernatant, 48 hour incubation

T1 sequence (P14902 whole entry): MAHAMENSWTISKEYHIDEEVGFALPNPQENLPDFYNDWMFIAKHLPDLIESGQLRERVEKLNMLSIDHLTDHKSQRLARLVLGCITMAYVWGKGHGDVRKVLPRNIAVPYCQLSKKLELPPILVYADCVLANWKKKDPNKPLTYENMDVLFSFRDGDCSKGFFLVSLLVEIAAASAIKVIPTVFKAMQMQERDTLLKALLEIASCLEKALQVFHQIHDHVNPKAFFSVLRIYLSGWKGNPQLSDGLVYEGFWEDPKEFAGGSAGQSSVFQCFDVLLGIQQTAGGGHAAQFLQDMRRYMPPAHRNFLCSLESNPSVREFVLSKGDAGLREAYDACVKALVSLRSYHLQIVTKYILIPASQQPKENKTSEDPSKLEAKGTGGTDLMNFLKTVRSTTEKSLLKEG

pEC50 [1] | pEC50 [2] | SMILES
5.44 |  | CC(C)(C)OC(=O)NCCc1nc2c(F)c(F)cc(/C(=N/O)Nc3ccc(F)c(Cl)c3)c2[nH]1 [Example 213, tert-butyl (2-(7-(N-(3-chloro-4-fluorophenyl)-N′-hydroxycarbamimidoyl)-4,5-difluoro-1H-benzo[d]imidazol-2-yl)ethyl)carbamate]
 | 5.67 | O/N=C(\Nc1ccc(F)c(Cl)c1)c1cc(F)c(F)c2nc(NCC3COCCN3)[nH]c12 (stereo not drawn) [Example 467, N-(3-chloro-4-fluorophenyl)-4,5-difluoro-N′-hydroxy-2-((morpholin-3-ylmethyl)amino)-1H-benzo[d]imidazole-7-carboximidamide]
6.06 |  | COCCNc1nc2nccc(C(=NO)Nc3ccc(F)c(Cl)c3)c2[nH]1 [Example 212, N-(3-chloro-4-fluorophenyl)-N′-hydroxy-2-((2-methoxyethyl)amino)-1H-imidazo[4,5-b]pyridine-7-carboximidamide]
5.98 |  | N#Cc1cc(N/C(=N\O)c2ccnc3nc[nH]c23)ccc1F [Example 90, N-(3-Cyano-4-fluorophenyl)-N′-hydroxy-1H-imidazo[4,5-b]pyridine-7-carboximidamide]
5.62 |  | CN(CCNc1nc2nccc(/C(=N/O)Nc3ccc(F)c(Cl)c3)c2[nH]1)CC(F)F [Example 220, N-(3-chloro-4-fluorophenyl)-2-((2-((2,2-difluoroethyl)(methyl)amino)ethyl)amino)-N′-hydroxy-1H-imidazo[4,5-b]pyridine-7-carboximidamide]
 | < 5.00 | CC(=O)NCCNc1nc2nccc(/C(=N/O)Nc3ccc(F)c(Cl)c3)c2[nH]1 [Example 404, N-(2-((7-(N-(3-chloro-4-fluorophenyl)-N′-hydroxycarbamimidoyl)-1H-imidazo[4,5-b]pyridin-2-yl)amino)ethyl)acetamide]
 | 5.87 | CN(C)CCSc1nc2nccc(/C(=N/O)Nc3ccc(F)c(Cl)c3)c2[nH]1 [Example 487, N-(3-chloro-4-fluorophenyl)-2-((2-(dimethylamino)ethyl)thio)-N′-hydroxy-1H-imidazo[4,5-b]pyridine-7-carboximidamide]
6.25 |  | CN(C)CCc1nc2nccc(/C(=N/O)Nc3ccc(F)c(Br)c3)c2[nH]1 [Example 263, N-(3-bromo-4-fluorophenyl)-2-(2-(dimethylamino)ethyl)-N′-hydroxy-1H-imidazo[4,5-b]pyridine-7-carboximidamide]
 | 6.19 | Nc1nc2cc(F)cc(/C(=N/O)Nc3cccc(Cl)c3)c2[nH]1 [Example 371, 2-amino-N-(3-chlorophenyl)-5-fluoro-N′-hydroxy-1H-benzo[d]imidazole-7-carboximidamide]
 | 6.68 | COc1c(F)cc(/C(=N/O)Nc2ccc(F)c(Cl)c2)c2[nH]cnc12 [Example 307, N-(3-chloro-4-fluorophenyl)-5-fluoro-N′-hydroxy-4-methoxy-1H-benzo[d]imidazole-7-carboximidamide]
5.57 |  | O/N=C(\Nc1ccc(F)c(Cl)c1)c1ccnc2nc(NCCN3CCCC3)[nH]c12 [Example 283, N-(3-chloro-4-fluorophenyl)-N′-hydroxy-2-((2-(pyrrolidin-1-yl)ethyl)amino)-1H-imidazo[4,5-b]pyridine-7-carboximidamide]
 | 6.33 | CCN(CC)[C@@H]1COC[C@H]1Nc1nc2c(F)c(F)cc(/C(=N/O)Nc3ccc(F)c(Cl)c3)c2[nH]1 [Example 476, N-(3-chloro-4-fluorophenyl)-2-(((3S,4S)-4-(diethylamino)tetrahydrofuran-3-yl)amino)-4,5-difluoro-N′-hydroxy-1H-benzo[d]imidazole-7-carboximidamide]
6.61 |  | CCN(CC)CCNc1nc2c(F)c(F)cc(/C(=N/O)Nc3ccc(F)c(Cl)c3)c2[nH]1 [Example 42, N-(3-Chloro-4-fluorophenyl)-2-((2-(diethylamino)ethyl)amino)-4,5-difluoro-N′-hydroxy-1H-benzo[d]imidazole-7-carboximidamide]
5.40 |  | O/N=C(\Nc1ccc(F)c(Cl)c1)c1ccnc2nc(CNCc3cnccn3)[nH]c12 [Example 134, N-(3-Chloro-4-fluorophenyl)-N′-hydroxy-2-(((pyrazin-2-ylmethyl)amino)methyl)-1H-imidazo[4,5-b]pyridine-7-carboximidamide]
5.75 |  | O/N=C(\Nc1ccc(F)c(Cl)c1)c1ccnc2nc(CNCc3ccccc3)[nH]c12 [Example 115, 2-((Benzylamino)methyl)-N-(3-chloro-4-fluorophenyl)-N′-hydroxy-1H-imidazo[4,5-b]pyridine-7-carboximidamide]
6.42 |  | CN(C)CCc1nc2c(/C(=N/O)Nc3cccc(Br)c3)cc(F)c(F)c2[nH]1 [Example 55, N-(3-Bromophenyl)-2-(2-(dimethylamino)ethyl)-6,7-difluoro-N′-hydroxy-1H-benzo[d]imidazole-4-carboximidamide]
5.89 |  | O/N=C(\Nc1ccc(F)c(Cl)c1)c1ccnc2nc(CCN3CCC3)[nH]c12 [Example 259, 2-(2-(azetidin-1-yl)ethyl)-N-(3-chloro-4-fluorophenyl)-N′-hydroxy-1H-imidazo[4,5-b]-pyridine-7-carboximidamide]

pEC50 [1] | pEC50 [2] | SMILES
 | 5.14 | CS(=O)(=O)CCNc1nc2nccc(/C(=N/O)Nc3ccc(F)c(Cl)c3)c2[nH]1 [Example 493, N-(3-chloro-4-fluorophenyl)-N′-hydroxy-2-((2-(methylsulfonyl)ethyl)amino)-1H-imidazo[4,5-b]pyridine-7-carboximidamide]
5.77 |  | NCc1nc2c(F)c(F)cc(/C(=N/O)Nc3cccc(Cl)c3)c2[nH]1 [Example 31, 2-(Aminomethyl)-N-(3-chlorophenyl)-4,5-difluoro-N′-hydroxy-1H-benzo[d]imidazole-7-carboximidamide]
6.26 |  | O/N=C(\Nc1cccc(C(F)F)c1)c1ccnc2nc[nH]c12 [Example 98, N-(3-(difluoromethyl)phenyl)-N′-hydroxy-1H-imidazo[4,5-b]pyridine-7-carboximidamide]
5.66 |  | O/N=C(\Nc1ccc(F)c(Cl)c1)c1ccnc2nc(NC3CCOC3)[nH]c12 (stereo not drawn) [Example 227, N-(3-chloro-4-fluorophenyl)-N′-hydroxy-2-((tetrahydrofuran-3-yl)amino)-1H-imidazo[4,5-b]pyridine-7-carboximidamide]
 | 6.54 | OCC1CCCCN1CCNc1nc2c(F)c(F)cc(/C(=N/O)Nc3ccc(F)c(Cl)c3)c2[nH]1 (stereo not drawn) [Example 489, N-(3-chloro-4-fluorophenyl)-4,5-difluoro-N′-hydroxy-2-((2-(2-(hydroxymethyl)piperidin-1-yl)ethyl)amino)-1H-benzo[d]imidazole-7-carboximidamide]
6.49 |  | O/N=C(\Nc1cc(Cl)ccc1F)c1ccnc2nc[nH]c12 [Example 60, N-(5-Chloro-2-fluorophenyl)-N′-hydroxy-1H-imidazo[4,5-b]pyridine-7-carboximidamide]
5.07 |  | O/N=C(\Nc1ccc(F)c(Cl)c1)c1ccnc2nc(-c3ccn[nH]3)[nH]c12 [Example 150, N-(3-Chloro-4-fluorophenyl)-N′-hydroxy-2-(1H-pyrazol-5-yl)-1H-imidazo[4,5-b]pyridine-7-carboximidamide]
6.18 |  | O/N=C(\Nc1ccc(F)c(Cl)c1)c1ccnc2nc(NCC3CC3)[nH]c12 [Example 161, N-(3-Chloro-4-fluorophenyl)-2-((cyclopropylmethyl)amino)-N′-hydroxy-1H-imidazo[4,5-b]pyridine-7-carboximidamide]
6.19 |  | O/N=C(\Nc1ccc(Cl)c(Cl)c1)c1ccnc2nc[nH]c12 [Example 86, N-(3,4-Dichlorophenyl)-N′-hydroxy-1H-imidazo[4,5-b]pyridine-7-carboximidamide]
6.28 |  | CN(C)Cc1nc2c(/C(=N/O)Nc3ccc(F)c(Cl)c3)cc(F)c(F)c2[nH]1 [Example 52, N-(3-Chloro-4-fluorophenyl)-2-((dimethylamino)methyl)-6,7-difluoro-N′-hydroxy-4H-benzo[d]imidazole-4-carboximidamide]
 | 6.16 | O/N=C(\Nc1cccc(Br)c1)c1cc(F)c(F)c2nc(NCCN3CCCC3)[nH]c12 [Example 331, N-(3-bromophenyl)-4,5-difluoro-N′-hydroxy-2-((2-(pyrrolidin-1-yl)ethyl)amino)-1H-benzo[d]imidazole-7-carboximidamide]
5.40 |  | OCc1nc2c(/C(=N/O)Nc3ccc(F)c(C(F)(F)F)c3)ccnc2[nH]1 [Example 171, N-(4-Fluoro-3-(trifluoromethyl)phenyl)-N′-hydroxy-2-(hydroxymethyl)-3H-imidazo[4,5-b]pyridine-7-carboximidamide]
 | 6.36 | CN(C)CCNc1nc2cc(F)cc(/C(=N/O)Nc3ccc(F)c(Cl)c3)c2[nH]1 [Example 379, N-(3-chloro-4-fluorophenyl)-2-((2-(dimethylamino)ethyl)amino)-5-fluoro-N′-hydroxy-1H-benzo[d]imidazole-7-carboximidamide]
 | 5.88 | CCC(CC)CN(C)CCNc1nc2c(F)c(F)cc(/C(=N/O)Nc3ccc(F)c(Cl)c3)c2[nH]1 [Example 397, N-(3-chloro-4-fluorophenyl)-2-((2-((2-ethylbutyl)(methyl)amino)ethyl)amino)-4,5-difluoro-N′-hydroxy-1H-benzo[d]imidazole-7-carboximidamide]
 | 6.25 | CC1CN(C(C)(C)CNc2nc3nccc(/C(=N/O)Nc4ccc(F)c(Cl)c4)c3[nH]2)CC(C)O1 (stereo not drawn) [Example 484, N-(3-chloro-4-fluorophenyl)-2-((2-(2,6-dimethylmorpholino)-2-methylpropyl)amino)-N′-hydroxy-1H-imidazo[4,5-b]pyridine-7-carboximidamide]
 | 6.22 | CN(C)CCNc1nc2c(F)ccc(/C(=N/O)Nc3ccc(F)c(Br)c3)c2[nH]1 [Example 382, N-(3-bromo-4-fluorophenyl)-2-((2-(dimethylamino)ethyl)amino)-4-fluoro-N′-hydroxy-1H-benzo[d]imidazole-7-carboximidamide]
